# Patent publication US12285408B2, “Methods and compositions for the treatment of snake bite” (priority 2021, dated 2025)
# Entries after “also recorded” stand apart in the source; their conditions may differ.
# Columns and labels:
# Echis ocellatus venom = assay: Murine preincubation (co-incubation) model of venom lethality, intravenous, with TAT ELISA; type: in vivo, CD-1 mice; conditions: 45 μg venom (2.5×LD50) preincubated 30 min at 37° C. with 60 μg of each drug, i.v., 6 h monitoring, n=5
# Method: The intravenous median lethal dose (venom LD50) for E. ocellatus (Nigeria) of 17.85 μg per mouse was previously determined. Mice were challenged with 45 μg of E. ocellatus venom (2.5×the intravenous LD50 dose) in a refined version of the World Health Organization-recommended antivenom efficacy experiments. Groups of five male 18-22 g CD-1 mice (Charles River, UK) received experimental doses that consisted of either (a) venom only (2.5×LD50 dose), (b) venom and drug (60 μg) or (c) drug only. All experimental doses were prepared to a volume of 200 μl in PBS and incubated at 37° C. for 30 mins prior to their intravenous injection via the tail vein. Animals were monitored for 6 hours and euthanized upon observation of humane endpoints (seizure, pulmonary distress, paralysis, hemorrhage). Deaths, time of death, and survivors were recorded; where “deaths/time of death” represents the implementation of euthanasia based on the defined humane endpoints.
# (§1) The same murine preincubation model was used to assess the efficacy of distinct toxin family inhibiting drugs in comparison with a drug combination. […] All experimental doses were prepared to a volume of 200 μl in PBS and incubated at 37° C. for 30 min prior to their intravenous injection via the tail vein. Animals were monitored for 6 h, and euthanized via rising concentrations of CO2 upon observation of previously defined humane end points that are predicators of lethality (e.g., seizure, pulmonary distress, paralysis, hemorrhage). Deaths, time of death, and survivors were recorded; where death/time of death represents the implementation of euthanasia based on defined humane end points.
# Strong drug hits, those defined as inhibiting >80% of the venom activity in the previously described in vitro metalloproteinase assay (FIG. 1), were next progressed into murine preclinical efficacy studies, to assess their ability to prevent venom-induced lethality in vivo. We used an established in vivo model of envenoming to test the efficacy of the seven snake venom metalloproteinase toxin inhibitors identified. This model consisted of the preincubation of the test drug with venom, followed by intravenous injection of the mixture into groups of five male CD-1 mice (18-20 g) via the tail vein followed by 6 hour monitoring, and is based on principles laid out in the gold standard method of preclinical efficacy recommended by the World Health Organization.
# We used an established in vivo model of envenoming^41,42 to test the efficacy of small molecule toxin inhibitors. […]
# C. scutulatus venom = assay: Murine preincubation model of venom lethality, North American pit viper venom; type: in vivo, CD-1 mice; conditions: 2.5×LD50 C. scutulatus venom preincubated with 60 μg of each drug, i.v., 6 h, n=5
# Method: as §1, with “Thereafter, the” for “The”, “animal” for “preincubation”, “explore” for “assess”, “the same snake venom metalloproteinase and phospholipase A2” for “distinct toxin family”, “as solo and combination treatments against North American pit viper venoms. The intravenous median lethal dose (venom LD50) for C. atrox, C. scutulatus, S. miliariius and A. contortrix venoms was previously determined (3.79 μg, 0.17 μg, 4.87 μg and 4.99 μg per mouse, respectively).” for “in comparison with a drug combination.”, “As described above, all” for “All”
# (§2) These snake species were selected for their taxonomic diversity and clinical importance in the USA, namely: 1) Crotalus atrox (Western diamondback), which is found across the southwest USA and into Mexico and is thought to be the most common cause of snakebite envenoming in USA, 2) Crotalus scutulatus (Mojave rattlesnake), which is also found across the southwest USA and into Mexico, 3) Sistrurus miliarius (pygmy rattlesnake), which is found in the South-East USA, and 4) Agkistrodon contortrix (Eastern copperhead), which is found in central and eastern USA. […] The drug treatments consisted of: DMPS, marimastat, or varespladib as solo drug treatments, or a DMPS and varespladib combination, or a marimastat and varespladib combination.
# A. contortrix venom = assay: as above; type: in vivo, CD-1 mice; conditions: 2.5×LD50 A. contortrix venom preincubated with 60 μg of each drug, i.v., 6 h, n=5
# Method: as §1, with “Thereafter, the” for “The”, “animal” for “preincubation”, “explore” for “assess”, “the same snake venom metalloproteinase and phospholipase A2” for “distinct toxin family”, “as solo and combination treatments against North American pit viper venoms. The intravenous median lethal dose (venom LD50) for C. atrox, C. scutulatus, S. miliariius and A. contortrix venoms was previously determined (3.79 μg, 0.17 μg, 4.87 μg and 4.99 μg per mouse, respectively).” for “in comparison with a drug combination.”, “As described above, all” for “All”
# as §2
# C. atrox venom = assay: as above; type: in vivo, CD-1 mice; conditions: 2.5×LD50 C. atrox venom preincubated with 60 μg of each drug, i.v., 6 h, n=5
# Method: as §1, with “Thereafter, the” for “The”, “animal” for “preincubation”, “explore” for “assess”, “the same snake venom metalloproteinase and phospholipase A2” for “distinct toxin family”, “as solo and combination treatments against North American pit viper venoms. The intravenous median lethal dose (venom LD50) for C. atrox, C. scutulatus, S. miliariius and A. contortrix venoms was previously determined (3.79 μg, 0.17 μg, 4.87 μg and 4.99 μg per mouse, respectively).” for “in comparison with a drug combination.”, “As described above, all” for “All”
# as §2
# [1] = cited from earlier work
Compound,survival / protection against venom-induced lethality (Echis ocellatus venom),protection against venom lethality (C. scutulatus venom),protection against venom lethality (A. contortrix venom),protection against venom lethality (C. atrox venom),tolerability ([1]; Phase 1 and 2),"risk of major adverse cardiovascular events ([1]; Phase 2B, same daily dose, >300 patients for >6 months)","risk of myocardial infarction ([1]; Phase 3, acute coronary syndrome patients, 500 mg oral daily)","side effects ([1]; single doses of up to 800 mg, bidaily 200 mg for 6.5 days, or 75 mg daily for 28 days)"
"O=S(=O)(O)CC(S)CS (stereo not shown) [DMPS, 2,3-dimercapto-1-propanesulfonic acid]",all animals surviving; also recorded: complete protection,some limited protection,Neither drug provided protection,Neither drug provided protection,–,–,–,–
CCc1c(C(=O)C(N)=O)c2c(OCC(=O)O)cccc2n1Cc1ccccc1 [varespladib],failed to prevent lethality over the full experimental time course,survive the duration of the experiment,survived for longer periods of time than the venom only controls,survived for longer periods of time than the venom only controls,well tolerated,no greater risk of major adverse cardiovascular events,greater risk of myocardial infarction than those receiving placebo,–
CNC(=O)[C@@H](NC(=O)[C@H](CC(C)C)[C@H](O)C(=O)NO)C(C)(C)C [marimastat],only one death; also recorded: remaining four survived,some limited protection,Neither drug provided protection,Neither drug provided protection,–,–,–,no notable side effects
